Results from US11311576B2, “Methods of use for CAR T cells” (Seattle Children's Hospital, priority 2018, dated 2022).

What was measured:
HOS-143b = test: Specific lysis at varying E/T ratios with 10 nM EC17, FR-negative cells; format: cell-based, human; conditions: 10 nM EC17, E2-CAR-T cells, 48 hours of co-culture
Experimental: After 24 hours of co-culture, supernatants were harvested to determine tumor cell killing. To study the kinetics of T cell activation and FR correlation in vitro (FIG. 60A, FIG. 60B, FIG. 60C, FIG. 60D, FIG. 60E), co-cultures were carried out in FR+/− cell lines at varying E/T ratios (1:27, 1:9, 1:3, 1:1, 3:1) in the continuous presence of 10 nM EC17. The kinetics of tumor cell killing were quantified after 16 and 48 hours of co-culture. Meanwhile, a portion of the supernatants was taken after 44 hours of co-culture for measurement of IFNg, IL-2 and TNFα. Using Promega's CytoTox 96® LDH assay kit, target cell killing was quantified and expressed as specific lysis (%) which was normalized to basal levels in the absence of EC17 at defined E/T ratios. The LEGENDplex™ human Th1 cytokine panel (BioLegend, San Diego, Calif.) was used to determine CAR-T cell derived cytokines.
Specific lysis (%) was quantified after 16 and 48 hours of co-culture, and Th1 cytokines (IFNg, TNFa) in culture media were measured after 44 hours of co-culture. […] It generally took a longer time (48 hours) and a higher E/T ratio (≥1:1) to see significant activity in the lowest FR-expressing OV90 cells (FIG. 60A). The high FR-expressing KB cells responded very slowly and also required a higher E/T ratio (≥1:3) and longer exposure time to cause significant cell death (FIG. 60B, left plot).

[1] = EC17/E2-CAR T-cell therapy in naïve NSG mice without tumor; format: in vivo; conditions: 10 million E2 CAR-T cells, EC17 500 nmol/kg x2 doses
Experimental: EGFRt-sorted anti-FITC E2 scFv-CAR T cells were frozen in a T-cell freezing medium. Vials of frozen CAR-T cells were immediately stored at −80° C. The CAR-T cells were quickly thawed at 37° C., washed twice with PBS, and used for animal injection at 10 million viable EGFRt+E2 CAR-T cells (CD4/CD8 at ˜1:1) per animal. A small aliquot was taken on the day infusion for flow cytometric analysis of E2-CAR T-cell phenotypes.
Mouse blood samples were processed for plasma and stored at −20° C. until use. A human TH1 cytokine panel (Biolegend, Cat. No. 740009) and a human hematopoietic stem cell cytokine panel (Biolegend, Cat. No. 740610) was used to detect human cytokines in the mouse blood. […]
Whole blood cell analysis: Plasma was removed from predetermined volumes of whole EDTA treated blood and RBCs were lysed with RBC lysis solution. […] Determination of the concentration of CAR T cells in each blood sample was calculated according to Invitrogen's instructions. CAR T cells were identified as human CD3ε+ EGFRt+ events and easily distinguished and counted using the Kaluza™ flow cytometry software. The number of CAR T cells in the circulation of each infused mouse was then represented on the graphs as the total number of CAR T cells per 100 μL of whole blood analyzed. Statistical significance was determined by utilizing an unpaired, two-tailed, students t30 test with significance set at p<0.05. […]

NC1=NC2N=CC(CNc3ccc(C(=O)N[C@@H](CCC(=O)NCCNC(=S)Nc4ccc(-c5c6ccc(=O)cc-6oc6cc(O)ccc56)c(C(=O)O)c4)C(=O)O)cc3)=NC2C(=O)N1 (some centres unmarked) [EC17, FA-(g)-ethylenediamine-FITC]
specific lysis of FR-negative cells (HOS-143b): essentially unharmed
IFN-g production, difference between tumor-free and MDA-MB-231 tumor-bearing mice [1]: 23 fold
